The values below come from patent US12357666B1, “Traditional Chinese herbal plant composition for improving symptoms of liver cancer patients and compatibility method thereof” (The First Hospital of China Medical University, priority 2024, dated 2025).

Data set [1] is described as follows: Organ index (lung, liver, heart, kidney) of tumor mice. Format: in vivo, BALB/c nude mice. As to conditions: 28 d. The source says:
(§1) Totally 90 male BALB/c nude mice aged 5 weeks and with body weight of 19-22 g were used.
(§2) A total of 80 BALB/c nude mice were randomly selected and injected subcutaneously with Hep G2 cell line (5×10^6 cells) in the right armpits.
After 28 d of continuous administration, the mice in each group were weighed and killed by cervical dissection. Tumors and organs (lung, liver, heart and kidney) of the mice in each group were removed under sterile conditions, and washed with physiological saline. After washing, the tumors and the organs were dried with filter paper, weighed to obtain mass and recorded, and the tumor inhibition rate and organ index were calculated. The tumor mass of the mice was the average value of the tumor mass of each group of mice. Tumor inhibition rate=(tumor mass of mice in the model group-tumor mass of mice in the test group)/tumor mass of mice in the model group×100%. Organ index (mg/g)=organ mass (mg)/body mass (g) of mice.

The test system of data set [2] is Hep G2 cell line. Nature of the data set: Anti-tumor effect on tumor mice (subcutaneous Hep G2 model): tumor mass and tumor inhibition rate. The format is in vivo, BALB/c nude mice. To be noted: 28 d.
Excerpt: The effect example explored the anti-tumor effect of the herbal plant compositions of Embodiment 1 and Comparative Examples 1 to 3 on tumor mice, and a specific process is as follows.
as §1, §2
Dosing Criteria: the conventional gavage dose of mice was […]. Generally, it is also necessary to increase the dose of the original medicinal material of the herbal plant composition by 1 time and decrease the dose of the original medicinal material of the herbal plant composition by 1 time for gavage.
Low-dose Embodiment 1 Herbal Plant Composition Group: 10 mice, administered 5.27 g/kg Embodiment 1 herbal plant composition by gavage.
Medium-dose Embodiment 1 Herbal Plant Composition Group: 10 mice, administered 10.53 g/kg Embodiment 1 herbal plant composition by gavage.
High-dose Embodiment 1 Herbal Plant Composition Group: 10 mice, administered 21.06 g/kg Embodiment 1 herbal plant composition by gavage.
High-dose Comparative Example 1 Herbal Plant Composition Group: 10 mice, administered 21.06 g/kg Comparative Example 1 herbal plant composition by gavage.
High-dose Comparative Example 2 Herbal Plant Composition Group: 10 mice, administered 21.06 g/kg Comparative Example 2 herbal plant composition by gavage.
High-dose Comparative Example 3 Herbal Plant Composition Group: 10 mice, administered 21.06 g/kg Comparative Example 3 herbal plant composition by gavage.
Western medicine control group: 10 mice, administered 0.03 g/kg 5-fluorouracil by gavage.
After 28 d of continuous administration, the mice in each group were weighed and killed by cervical dissection. […] After washing, the tumors and the organs were dried with filter paper, weighed to obtain mass and recorded, and the tumor inhibition rate and organ index were calculated. […]

Molecules are shown by their SMILES.

In the case of `O=c1[nH]cc(F)c(=O)[nH]1` [Western medicine control group, 5-fluorouracil], in data set [1] (0.03 g/kg by gavage), the “Cardiac Index” value was 5.13 mg/g, the “Liver index” value is 42.78 mg/g, the “Lung index” value stood at 5.96 mg/g and the “Renal index” value was found to be 17.69 mg/g. In addition, the “liver index, renal index, lung index and cardiac index compared to the model group (in words)” value in data set [1] (Table 3, gavage) is “no significant change”. In data set [2] (0.03 g/kg by gavage, Hep G2 tumor nude mice), the “Tumor mass” value came out at 0.27 g. In data set [2] (Table 2, gavage), the “tumor inhibition rates in mice (in words)” value is on record as “relatively high”. In addition, in data set [2] (tumor inhibition vs model group, 0.03 g/kg by gavage), the “Inhibition rate (%)” value came to 48.07%.
